Data published in patent publication US20100249163A1, “RENIN INHIBITORS” (priority 2007, published 2010).

Legend:
renin in human plasma = target: T1, renin in human plasma (Homo sapiens, UniProt P00797); experiment: Inhibition of renin in human plasma; format: biochemical; details: human plasma assay
T1 construct: host or cells: recombinant enzyme added to human plasma from 10 normal donors
T1 sequence (P00797 67-406): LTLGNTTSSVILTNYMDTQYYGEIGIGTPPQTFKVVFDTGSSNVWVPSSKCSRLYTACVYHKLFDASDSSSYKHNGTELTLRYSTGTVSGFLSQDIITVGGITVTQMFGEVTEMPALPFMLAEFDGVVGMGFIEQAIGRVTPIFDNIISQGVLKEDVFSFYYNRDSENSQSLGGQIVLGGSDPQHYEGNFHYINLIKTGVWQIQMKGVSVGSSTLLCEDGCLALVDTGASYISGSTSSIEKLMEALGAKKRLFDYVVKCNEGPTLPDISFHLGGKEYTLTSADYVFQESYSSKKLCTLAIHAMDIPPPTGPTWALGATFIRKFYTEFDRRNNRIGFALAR

human recombinant renin = target: T2, human recombinant renin (Homo sapiens, UniProt P00797); experiment: Renin IC50, QFRET (quenched fluorescence resonance energy transfer) assay; format: biochemical; details: FRET (quenched fluorescence resonance energy transfer) assay
T2 sequence (P00797 67-406): T1 sequence (P00797 67-406)

SMILES | IC50 (renin in human plasma) [nM] | IC50 (human recombinant renin) [nM]
COCCCc1cc(CN(C(=O)[C@H]2CNCC[C@]2(O)c2ccn(C)c(=O)c2)C2CC2)cc(OCCOC)c1 (racemic) [Example 23, rac-(3S,4R)—N-cyclopropyl-4-hydroxy-N-[3-(2-methoxyethoxy)-5-(3-methoxypropyl)benzyl]-4-(1-methyl-2-oxo-1,2-dihydropyridin-4-yl)piperidine-3-carboxamide] | 136 | 76
COCCCc1cc(CN(C(=O)[C@H]2CNCC[C@]2(OC)c2ccc(F)c(F)c2)C2CC2)cc(OCCOC)c1 (racemic) [Example 35, Rac-(3S,4R)—N-cyclopropyl-4-(3,4-difluorophenyl)-4-methoxy-N-[3-(2-methoxyethoxy)-5-(3-methoxypropyl)benzyl]piperidine-3-carboxamide] | 4.7 | 1
COCCCc1cc(CN(C(=O)[C@H]2CNCC[C@]2(OCc2cnn[nH]2)c2ccc(F)c(F)c2)C2CC2)cc(OCCOC)c1 [Example 51, (3S,4R)—N-cyclopropyl-4-(3,4-difluorophenyl)-N-[3-(2-methoxyethoxy)-5-(3-methoxypropyl)benzyl]-4-(1H-1,2,3-triazol-5-ylmethoxy)piperidine-3-carboxamide] | 21 | 3.9
COCCc1ccc(Cl)c(CN(C(=O)[C@H]2CNCC[C@]2(OCC(O)CO)c2ccc(F)c(F)c2)C2CC2)c1 (stereo partly drawn) [Example 54, (3S,4R)—N-[2-chloro-5-(2-methoxyethyl)benzyl]-N-cyclopropyl-4-(3,4-difluorophenyl)-4-(2,3-dihydroxypropoxy)piperidine-3-carboxamide] | 4.8 | 2.4

Second part, the compound after the results:

IC50 (renin in human plasma) [nM] | IC50 (human recombinant renin) [nM] | SMILES
280 | 140 | COCCCc1cc(CN(C(=O)[C@H]2CNCC[C@]2(O)c2cccnc2)C2CC2)cc(OCCOC)c1 (racemic) [Example 2, rac-(3S,4R)—N-cyclopropyl-4-hydroxy-N-[3-(2-methoxyethoxy)-5-(3-methoxypropyl)benzyl]-4-pyridin-3-ylpiperidine-3-carboxamide]
61 | 1.1 | COCCCc1cc(CN(C(=O)[C@H]2CNCC[C@]2(OCc2ccc(F)cc2)c2ccc(F)c(F)c2)C2CC2)cc(OCCOC)c1 [Example 48, (3S,4R)—N-cyclopropyl-4-(3,4-difluorophenyl)-4-[(4-fluorobenzyl)oxy]-N-[3-(2-methoxyethoxy)-5-(3-methoxypropyl)benzyl]piperidine-3-carboxamide]
11 | 2.7 | COCCCc1cc(CN(C(=O)[C@H]2CNCC[C@]2(OCCOC)c2ccc(F)c(F)c2)C2CC2)cc(OCCOC)c1 [Example 49, (3S,4R)—N-cyclopropyl-4-(3,4-difluorophenyl)-4-(2-methoxyethoxy)-N-[3-(2-methoxyethoxy)-5-(3-methoxypropyl)benzyl]piperidine-3-carboxamide]
